What all share (assay type): in vivo
Assay [1] deals with pigweed (Amaranthus retroflexus). Description: Test A postemergence. The settings on record: Amaranthus retroflexus, post-emergence, 240 h, postemergence. The essentials: (§1)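 Greenhouse, ~10 d after spray; visual injury vs untreated controls, 0 = no effect, 100 = complete control. Preemergence: directed soil spray over planted seeds. Postemergence: plants 2–10 cm, 1–2 leaf stage. Loam/sand blend. Compound in non-phytotoxic solvent with surfactant.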

For assay [2], the system named is giant foxtail (Setaria faberii). As to the kind of experiment: Test A postemergence. The settings on record: Setaria faberi, post-emergence, 240 h, postemergence. The essentials: as §1
Assay [3] deals with ryegrass, Italian (Italian ryegrass, Lolium multiflorum). Description: Test A postemergence. The settings on record: Lolium multiflorum, post-emergence, 240 h, postemergence. The essentials:
as §1

For assay [4], the system named is ragweed (common ragweed, Ambrosia elatior). As to the kind of experiment: Test A preemergence. The settings on record: Ambrosia artemisiifolia, pre-emergence, 240 h, preemergence, 0 to 100 scale where 0 is no effect and 100 is complete control, read-out: Ragweed plant response rating. The essentials: as §1
A further assay concerns Kochia (Kochia scoparia). As to the kind of experiment: Test A preemergence. As to conditions: Bassia scoparia, pre-emergence, 240 h, preemergence, 0 to 100 scale where 0 is no effect and 100 is complete control, read-out: Kochia plant response rating. The essentials:
as §1

For assay [5], the system named is pigweed (Amaranthus retroflexus). Description: Test A preemergence. As to conditions: Amaranthus retroflexus, pre-emergence, 240 h, preemergence, 0 to 100 scale where 0 is no effect and 100 is complete control, read-out: Pigweed plant response rating.
Assay [6] deals with giant foxtail (Setaria faberii). Description: Test A preemergence. As to conditions: Setaria faberi, pre-emergence, 240 h, preemergence, 0 to 100 scale where 0 is no effect and 100 is complete control, read-out: Foxtail, Giant plant response rating. The essentials: as §1
In assay [7] the test system is ryegrass, Italian (Italian ryegrass, Lolium multiflorum). Description: Test A preemergence. The settings on record: Lolium multiflorum, pre-emergence, 240 h, preemergence, 0 to 100 scale where 0 is no effect and 100 is complete control, read-out: Ryegrass, Italian plant response rating. The essentials:
as §1

Assay [8] deals with barnyardgrass (Echinochloa crus-galli). As to the kind of experiment: Test A preemergence. As to conditions: Echinochloa crus-galli, pre-emergence, 240 h, preemergence, 0 to 100 scale where 0 is no effect and 100 is complete control, read-out: Barnyardgrass plant response rating. The essentials: as §1
The next assay concerns rice (Oryra sativa). As to the kind of experiment: Test B flooded paddy test. The settings on record: Oryza sativa, 250 g ai/ha, Flood; 0 to 100 scale where 0 is no effect and 100 is complete control; read-out: Rice plant response rating. The essentials:
(§2)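 Plants at 2-leaf stage flooded to 3 cm above soil, with compounds applied directly to paddy water and that depth maintained. Plants kept in greenhouse 13–15 d. Visual rating versus controls on a 0 (no effect) to 100 (complete control) scale.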

Assay [9] deals with ducksalad (Heteranthera limosa). Description: Test B flooded paddy test. As to conditions: Heteranthera limosa, 250 g ai/ha, Flood; 0 to 100 scale where 0 is no effect and 100 is complete control; read-out: Ducksalad plant response rating. The essentials: as §2
For assay [10], the system named is sedge, umbrella (small-flower umbrella sedge, Cyperus difformis). As to the kind of experiment: Test B flooded paddy test. As to conditions: Cyperus difformis, 250 g ai/ha, Flood; 0 to 100 scale where 0 is no effect and 100 is complete control; read-out: Sedge, Umbrella plant response rating. The essentials:
as §2

For assay [11], the system named is barnyardgrass (Echinochloa crus-galli). Description: Test B flooded paddy test. As to conditions: Echinochloa crus-galli, 250 g ai/ha, Flood; 0 to 100 scale where 0 is no effect and 100 is complete control; read-out: Barnyardgrass plant response rating. The essentials:
as §2

Where [12] appears, read: 125 g ai/ha, visual injury rating, approximately 10 d.

On to `CN1C[C@H](c2ccc3c(c2)OC(F)(F)O3)[C@@H](C(=O)Nc2ccc(F)c(F)c2F)C1=O` [Compound 1204], for which the pest or weed control at 125 g/ha stood at 70% in [1] (125 g ai/ha, visual injury vs untreated controls after approx. 10 d, 0 = no effect, 100 = complete control, read-out: Pigweed plant response rating (0 to 100 scale)); 90% in assay [2] (125 g ai/ha, visual injury vs untreated controls after approx. 10 d, 0 = no effect, 100 = complete control, read-out: Foxtail, Giant plant response rating (0 to 100 scale)); 70% in [3] (125 g ai/ha, visual injury vs untreated controls after approx. 10 d, 0 = no effect, 100 = complete control, read-out: Ryegrass, Italian plant response rating (0 to 100 scale)); 90% in [4] (setting [12]); 80% in the assay with Kochia (Kochia scoparia) (setting [12]); 70% in [5] (setting [12]). Besides, the pest or weed control at 125 g/ha came out at 90% in assay [6] (setting [12]), 70% in assay [7] (setting [12]) and 90% in assay [8] (setting [12]). In addition, the pest or weed control at 500 g/ha in [1] (500 g ai/ha, 0 to 100 scale, 0 is no effect, 100 is complete control, read-out: Pigweed plant response rating) amounted to 80%; in assay [2] (500 g ai/ha, 0 to 100 scale, 0 is no effect, 100 is complete control, read-out: Foxtail, Giant plant response rating), 90%; in [3] (500 g ai/ha, 0 to 100 scale, 0 is no effect, 100 is complete control, read-out: Ryegrass, Italian plant response rating), 80%; in assay [4] (500 g ai/ha), 90%; with Kochia (Kochia scoparia) (500 g ai/ha), 80%; in assay [5] (500 g ai/ha) it was 100%. Besides, the pest or weed control at 500 g/ha in assay [6] (500 g ai/ha), in assay [7] (500 g ai/ha) and in assay [8] (500 g ai/ha) was 90% each time. The pest or weed control at 250 g/ha in the assay with rice (Oryra sativa) came to 0%; in assay [9], 100%; in assay [10], 0%; in assay [11], 70%.

(Values after patent publication US12077503B2, “Substituted cyclic amides and their use as herbicides” (FMC CORPORATION, priority 2015, dated 2024).)
